Publication PMC5398698, “Uncovering the molecular and physiological processes of anticancer leads binding human serum albumin: A physical insight into drug efficacy” (PLoS ONE, 2017)
Read-outs that look alike come from different tables or passages of the source.

Experiments:
[1] = target: T1, Human serum albumin (HSA) (Homo sapiens, UniProt P02768); assay: Steady-state fluorescence quenching of HSA by anticancer leads; assay type: binding; conditions: for ΔG: temperature-dependent fluorescence quenching
T1 construct: purchased Sigma-Aldrich A3782
T1 sequence (P02768 25-609): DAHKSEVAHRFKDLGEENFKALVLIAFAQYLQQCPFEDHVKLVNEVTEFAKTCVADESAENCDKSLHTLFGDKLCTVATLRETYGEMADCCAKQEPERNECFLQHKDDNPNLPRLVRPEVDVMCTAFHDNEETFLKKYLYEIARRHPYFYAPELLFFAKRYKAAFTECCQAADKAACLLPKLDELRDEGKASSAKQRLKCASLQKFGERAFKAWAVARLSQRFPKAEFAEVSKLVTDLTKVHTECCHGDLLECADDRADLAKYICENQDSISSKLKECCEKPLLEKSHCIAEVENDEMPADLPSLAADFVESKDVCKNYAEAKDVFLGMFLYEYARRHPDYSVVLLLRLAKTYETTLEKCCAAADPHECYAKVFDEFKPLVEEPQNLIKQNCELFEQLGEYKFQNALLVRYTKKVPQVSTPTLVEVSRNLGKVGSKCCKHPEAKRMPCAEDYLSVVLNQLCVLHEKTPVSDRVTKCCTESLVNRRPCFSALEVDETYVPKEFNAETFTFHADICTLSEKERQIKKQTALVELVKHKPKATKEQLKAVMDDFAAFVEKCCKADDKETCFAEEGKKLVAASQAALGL
Protocol: Steady-state fluorescence spectra were recorded on an Eclipse fluorescence spectrophotometer (Agilent Cary, USA) with a 1 cm path length quartz cuvette at 293 K and 298 K, respectively. Sample temperature was kept within ± 0.2 degree by recycled water throughout the experiment. The excitation and emission band passes were all set at 5 nm by keeping the excitation wavelength at 290 nm to achieve maximum fluorescence emission. The emission spectra was measured in the region of 305–450 nm, and the fluorescence intensity at peak position 340 nm was extracted for further analysis. HSA was diluted from stock solution with reaction buffer to a concentration of 10 μM for each quenching experiment. Titration was performed by successive addition of 1 mM anticancer leads into quartz cuvette, and the minor intensity decrease due to volume change was corrected by the control experiment.
In Fluorescence quenching, the inner filter effect (IFE) is of importance due to its effect on the emission intensity. One of the biggest causes of the IFE is the re-absorption of the emitted light in the excitation and emission region. It is an important issue that these effects cause severe underestimation of the fluorescence intensity measured because the concentration of the quencher increases when a Stern-Volmer analysis is carried out, and therefore the ability of the quencher to absorb the emitted light will also increase.
Where Aem and Aex represent the absorbance of small moecule at emission and excitation wavelength, respectively. F0 and Fc represent the observed fluorescence intensity and corrected fluorescence intensity, respectively.
In an attempt to gain insight into the molecular mechanism of HSA association, we have determined the binding mechanism, binding constant, binding site, and the number of binding sites. […] (1) Where F and F0 is the steady state fluorescence intensity in the presence and absence of quencher, respectively; Kq, τ0 and [Q] is the quenching rate constant, the average lifetime of the molecule without quencher and the concentration of quencher, respectively.
Modified Stern-Volmer plots are shown in Fig 3C and 3D, showing good linearity to modified Stern-Volmer equation: log[(F0−F)/F]=logKA+nlog[Q] (2)
F0−F/F0=Bmax(KA[Q])^h/1+(KA[Q])^h+Pnsb×[Q] (3)
Where F and F0 are the steady state fluorescence intensity in the presence and absence of quencher, respectively; [Q] is the concentration of quencher, Bmax is the maximum independent binding site classes, KA is the effective binding affinity; h is the Hill coefficient that describes the degree of ligand binding cooperativity and Pnsb is the nonspecific binding coefficient.
Usually, the types of interaction forces between small molecules and macromolecules mainly include hydrogen bonds, van der Waals forces, electrostatic interactions and hydrophobic interactions. To estimate the binding mode, the thermodynamic parameters, ΔH, ΔS and ΔG are often considered. On the basis of the characteristic signs of the thermodynamic parameters, the interaction forces between small molecule and protein can be assigned to hydrophobic interaction (ΔH > 0, ΔS > 0), van der Waals force (ΔH < 0, ΔS < 0) and electrostatic attraction (ΔH < 0, ΔS > 0). The entropy and enthalpy can be considered constant at a constant temperture, which is regulated by the van’t Hoff equation: lnKA=−ΔH/RT+ΔS/R (4)

[2] = target: T1, Human serum albumin (HSA); assay: Isothermal titration calorimetry (ITC) of leads binding HSA; conditions: 310 K
Protocol: The calorimetry measurement was carried out by isothermal titration calorimetry (ITC) (TA Instruments, USA) at 310 K. HSA in different reaction buffers (0.01 M PBS and 0.025 M MES) were extensively dialyzed before titration. […] The titration was afterward started with continuously stirring at 250 rpm. The raw heat rate data were integrated under injection peaks to obtain the reaction heat of each injection after substracting dilution heat which was measured by injecting with a blank control titration. The calculated heat changes were analyzed using the NANOanalyze software (TA Instruments, USA) and replotted with Origin 8.5. The free energy change (ΔG), enthalpy change (ΔH) and entropy change (ΔS) were calculated according to the thermodynamic formulas below: ΔG=−RTlnKA=ΔH−TΔS
Where KA is the association constant at the absolute temperature T (310 K) and R represents the gas constant (8.3151 J mol^-1K^-1).

[3] = target: T1, Human serum albumin (HSA); assay: SPR binding kinetic measurement on immobilized HSA
Protocol: Binding kinetic measurement was performed using Reichert 4-chanel SPR instrument Reichert4SPR (Reichert, USA). HSA was immobilized on carboxymethyl dextran chip at the condition of 0.1 mg/mL protein in 10 mM sodium acetate (pH 4.5). The final density is about 12,000 RU and flow rate is 20 μl/min. During immobilizing, the sensor chip was preconditioned with 3-min injection of double diluted water. Thereafter, the first flow cell surface was activated through using 0.05 M N-hydroxysuccinimide (NHS)/0.2 M 1-ethyl-3-(3-dimethylaminopropyl)carbodiimide hydrochloride (EDC) for 7 min, and then functionalized by injecting a solution of HSA (0.1 mg/mL) in 10 mM sodium acetate buffer (pH 4.5) for 20 min. Finally, unreacted NHS groups were deactivated with 1 M ethanolamine (pH 8.5) for 10 min. Simultaneously, the control flow cell was treated using the same conditions as described above. […] Final data obtained were corrected for instrumental and bulk artifacts by double referencing to a control sensor chip surface and blank buffer injection. The binding responses were concentration-dependent and dissociation constant KD values were derived from 1:1 kinetic model as well as steady state analysis using TraceDrawer software (Reichert, USA).

[4] = target: T1, Human serum albumin (HSA); assay: Fluorescence resonance energy transfer (FRET) distance HSA W214 to lead; assay type: binding; conditions: Forster theory; k^2 = 2/3, N = 1.36, Φ = 0.15
From the text: Fluorescence resonance energy transfer (FRET) occurs when the UV absorption spectrum of small molecule (acceptor) overlaps with the fluorescence emission spectrum of fluoreophore (donor). The fluorescence emission peak of HSA mostly locates in the range of the UV-vis absorption spectra of the two anticancer leads (Fig 5A and 5B). This indicates the possibility of FRET occuring between HSA and anticancer leads. According to Forster’s non-radiative energy transfer theory, the distance r between donor W214 of HSA and the acceptor of small molecule is determined by the relationship below: E=1−F/F0=R0^6/R0^6+r^6 (5) where E is the energy transfer efficiency; F and F0 are the fluorescence intensity in the presence and absence of quencher. […] In this case here, k^2 = 2/3 is for random orientation as in fluid solution, N = 1.36, Φ = 0.15, and J is calculated as: J=∑F(λ)ε(λ)λ^4Δλ/∑F(λ)Δλ (7) where F(λ) is the fluorescence intensity of the fluorescence donor of wavelength λ; and ε(λ) is the molar absorption coefficient calculated by Lambert-Beer relationship ε(λ) = A(λ)/cl at wavelength λ. The integration step was chosen to be the scanning data interval of 1 nm.

plasma proteins = assay: Estimate of fraction bound to plasma proteins from association constants; parameters: species or system human; conditions: estimated with Kd / ([P]f + Kd)
From the text: The function of HSA as drug carrier may facilitate drug access to the action site and be related to drug safety issues. Application of HSA on drug delivery may therefore be important in anticancer therapy, which has been taken into account in estimating therapeutic outcomes, particularly for highly bound compounds (defined as < 5% free drug compounds in blood). The free to bound drug rates can be estimated by using the formula Kd / ([P]f + Kd) through approximating the free protein concentration as [P]f = [P]T − [L]T [41]. […] Therefore, the affinity determines the steady state concentration of unbound or exposed drug in the plasma, maintaining a concentration gradient between the intestinal lumen and plasma, which is considered as the only fraction exerting the bioactivity. […] Moreover, both hepatic uptake and glomerular filtration are directly proportional to the free drug fraction presented in the plasma while drugs are modulated by the affinity difference of the plasma and tissue proteins. If a drug is highly bound to HSA and has a high extraction raio, the binding promotes metabolism by transporting the drug to liver, resulting in the decrease of free drug fraction. On the other hand, if a drug has a low liver extraction ratio, metabolism will be decreased by high HSA binding. […]

- n (reaction stoichiometric number, modified Stern-Volmer) ([1]; 293 K): 0.91 ± 0.013
- binding constant KA (modified Stern-Volmer) ([1]; 293 K, fit to Eq (2)): 3.31 ± 0.16 × 10^4 M^-1
- Hill coefficient h (nonlinear regression fitting) ([1]; 293 K, one class of binding sites): ~1.0
- ΔG ([1]; T 293 K): -23.49 kJ/mol
- ΔG ([1]; T 298 K): -23.58 kJ/mol
- n obtained by Hill equation ([1]; as quoted in the ITC comparison): 0.91
- quenching rate constant Kq (Stern-Volmer) ([1]; fluorescence lifetime of tryptophan in HSA around 10^-8 s, 10 μM HSA): 1.36 ± 0.016 × 10^12 M^-1s^-1
- ΔH ([1]; van't Hoff, 293 K and 298 K): -19.03 kJ/mol
- ΔS ([1]; van't Hoff, 293 K and 298 K): 15.27 J mol^-1 K^-1
- stoichiometry number [2]: 0.94 ± 0.06
- ΔG [2]: -28.86 kJ/mol
- ΔH [2]: -23.35 ± 2.53 kJ/mol
- ΔS [2]: 17.81 J mol^-1 K^-1
- binding constant (KA) ([2]; one-site independent model): 7.29 ± 2.68 × 10^4 M^-1
- dissociation rate slower than that of NSC290956 [3]: approximately 5 fold
- kinetic behavior ([3]; SPR sensorgram shape): fast-on and slow-off
- Ka (association rate constant) ([3]; SPR, 1:1 kinetic model): 2410 M⁻¹ s⁻¹
- koff (dissociation rate constant) ([3]; SPR, 1:1 kinetic model): 0.0333 s⁻¹
- Kd ([3]; SPR, 1:1 kinetic model, read-out: KD (dividing kinetic parameters, 1:1 model)): 13.8 µM
- Kd ([3]; SPR, steady-state phase data, read-out: Steady State KD): 12.3 µM
- binding affinity to HSA larger than that of NSC290956 ([3]; as measured with different experimental methods): 3~8 fold
- donor-acceptor distance r between HSA and lead [4]: 3.65 nm
- compound bound to plasma proteins (plasma proteins): over 98%
Compound: CC(=O)OCCC(C)CCC=C(C)C (centres unmarked) [NSC48693]
